# Measurements taken from patent publication US4087432A, “1H-imidazo(4,5-b)pyridine compounds” (Eli Lilly and Company, priority 1975, dated 1978).
# “And” between values parts separate entries of the source, which are not always exact repeats. Equal values may be shown once.
# Tests used:
# Sorghum = assay: General herbicidal effect alone/in combination, sorghum; type: in vivo; set-up: key: 0-10 scale: 0 = no injury, 10 = death; details: alone
# Method: (§1) Various of the compounds to be employed as active agent in accordance with the present invention were evaluated for preemergent application to various species of plants. In this evaluation, a soil was prepared consisting of one part masonry sand and one part shredded top soil blended together in a cement mixer. One gallon of this soil was placed in a 25 × 35 cm. galvanized flat and was patted down with a bench brush until level. A three-row marker was used to make 21/2 cm. deep furrows in approximately two-fifths of the flat. Crop seeds consisting of four kernels of corn, five cotton seeds and five soybean seeds were placed in these furrows. A four-row template was then placed on the remaining soil and the indicated approximate numbers of each of the following seeds were planted, one species to each section: foxtail (millet), 80-100 seeds; velvetleaf (40-50 seeds); rough pigweed (150-250 seeds); and large crabgrass (100-150 seeds).
# (§2) Sufficient soil was added to cover the entire flat. Thus, the weed seeds were covered to a depth of about 6 mm. and the crop seeds were covered to a depth of about 3 cm.
# (§3) In assaying the effect of the composition as preemergent herbicides, a flat prepared as above, taken either on the day of planting or on the next day, was placed in a chamber equipped with a turntable and an air exhaust. The herbicidal composition, either a spray-type emulsion or a wettable powder, was applied to the flat with a modified DeVilbiss atomizer hooked to an air source. Twelve and one-half milliliters of the composition under test were applied to each flat either on the day of planting or the succeeding day. Injury ratings and observations as to type of injury were made eleven to twelve days after treatment. The injury rating scale used was as follows:
# (§4) 4--death When more than one determination was carried out at a given rate, an average value was calculated for the injury rating. Each compound evaluated was formulated as a spray by one of the following procedures. In one method the particular compound was wetted by grinding in a mortar with one part of polyoxyethylene sorbitan monolaurate. Five hundred parts of water were added slowly to the resultant creamy paste to give an aqueous dispersion with a surfactant concentration of 0.2 percent. This dispersion was entirely satisfactory for spray application. In a second procedure the compound was dissolved in one volume of acetone, and the acetone solution was diluted with nineteen volumes of water containing 0.1 percent of polyoxyethylene sorbitan monolaurate.
# (§5) 6-Chloro-1-hydroxy-2-(trifluoromethyl)-1H-imidazo(4,5-b)pyridine was evaluated in combination with 2-chloro-4-ethylamino-6-isopropylamino-s-triazine and separately in combination with 2-chloro-2',6'-diethyl-N-(methoxymethyl)acetanilide for the control of plants. The evaluations were conducted as described in Examples 49-52, except that the rates of compound differed and the species were different. General herbicidal effect was rated on a scale of 0-10, with 0 = no injury and 10 = death. Observations were also made for the following other specific phytotoxic effects.
# Morning glory = assay: General herbicidal effect alone/in combination, morning glory; type: in vivo; set-up: key: 0-10 scale: 0 = no injury, 10 = death; details: alone
# Method: as §1, §2, §3, §4, §5
# Cotton = assay: Preemergent injury rating, cotton; type: in vivo; set-up: key: injury rating scale on which 4 = death
# Method: as §1, §2, §3, §4
# (§6) In the following table setting forth the results of the evaluation, column 1 gives the name of the compound under test; column 2, the rate in pounds per acre at which the compound was applied to the test flat; and the remaining columns, the injury to the particular plant seeds or seedlings as measured by the foregoing scale.
# Rice = assay: General herbicidal effect alone/in combination, rice; type: in vivo; set-up: key: 0-10 scale: 0 = no injury, 10 = death; details: alone
# Method: as §1, §2, §3, §4, §5
# Barnyard Grass = assay: General herbicidal effect alone/in combination, barnyard grass; type: in vivo; set-up: key: 0-10 scale: 0 = no injury, 10 = death; details: alone
# Method: as §1, §2, §3, §4, §5
# Foxtail Millet = assay: General herbicidal effect alone/in combination, foxtail millet; type: in vivo; set-up: key: 0-10 scale: 0 = no injury, 10 = death; details: alone
# Method: as §1, §2, §3, §4, §5
# Crabgrass [1] = assay: Preemergent injury rating, crabgrass; type: in vivo, large crabgrass; set-up: key: injury rating scale on which 4 = death
# Method: as §1, §2, §3, §4, §6
# Corn [2] = assay: Preemergent injury rating, corn; type: in vivo; set-up: key: injury rating scale on which 4 = death
# Method: as §1, §2, §3, §4, §6
# Corn [3] = assay: General herbicidal effect alone/in combination, corn (second Corn column); type: in vivo; set-up: key: 0-10 scale: 0 = no injury, 10 = death; details: alone
# Method: as §1, §2, §3, §4, §5
# Jimsonweed = assay: General herbicidal effect alone/in combination, jimsonweed; type: in vivo; set-up: key: 0-10 scale: 0 = no injury, 10 = death; details: alone
# Method: as §1, §2, §3, §4, §5
# Large Crabgrass = assay: General herbicidal effect alone/in combination, large crabgrass; type: in vivo; set-up: key: 0-10 scale: 0 = no injury, 10 = death; details: alone, 1.0 lbs/A; listed as A
# Method: as §1, §2, §3, §4, §5
# Foxtail [4] = assay: Preemergent injury rating, foxtail; type: in vivo, foxtail (millet); set-up: key: injury rating scale on which 4 = death
# Method: as §1, §2, §3, §4, §6
# Corn [5] = assay: General herbicidal effect alone/in combination, corn (first Corn column); type: in vivo; set-up: key: 0-10 scale: 0 = no injury, 10 = death; details: alone
# Method: as §1, §2, §3, §4, §5
# Pigweed [6] = assay: Preemergent injury rating, pigweed; type: in vivo, rough pigweed; set-up: key: injury rating scale on which 4 = death
# Method: as §1, §2, §3, §4, §6
# Soybean = assay: Preemergent injury rating, soybean; type: in vivo; set-up: key: injury rating scale on which 4 = death
# Method: as §1, §2, §3, §4, §6
# Velvet Leaf [7] = assay: Preemergent injury rating, velvetleaf; type: in vivo; set-up: key: injury rating scale on which 4 = death
# Method: as §1, §2, §3, §4, §6
# Lambs Quarter = assay: General herbicidal effect alone/in combination, lambsquarter; type: in vivo; set-up: key: 0-10 scale: 0 = no injury, 10 = death; details: alone, listed as A
# Method: as §1, §2, §3, §4, §5
# Pigweed [8] = assay: General herbicidal effect alone/in combination, pigweed; type: in vivo; set-up: key: 0-10 scale: 0 = no injury, 10 = death; details: alone
# Method: as §1, §2, §3, §4, §5
# Ragweed = assay: General herbicidal effect alone/in combination, ragweed; type: in vivo; set-up: key: 0-10 scale: 0 = no injury, 10 = death; details: alone
# Method: as §1, §2, §3, §4, §5
# Velvet Leaf [9] = assay: General herbicidal effect alone/in combination, velvetleaf; type: in vivo; set-up: key: 0-10 scale: 0 = no injury, 10 = death; details: alone
# Method: as §1, §2, §3, §4, §5
# Crabgrass [10] = assay: Postemergent injury rating, crabgrass; type: in vivo, large crabgrass; set-up: key: injury rating scale, 4 = death
# Method: as §1, §2, §3, §4
# (§7) Representative compounds of the present invention were evaluated for postemergent application to plants including corn and several weed species. The evaluation was carried out in accordance with the procedures of Examples 49-52 except that the test solutions were applied about 9-12 days after the preparation and seeding of the flats.
# Corn [11] = assay: Postemergent injury rating, corn; type: in vivo; set-up: key: injury rating scale, 4 = death
# Method: as §1, §2, §3, §4, §7
# Pigweed [12] = assay: Postemergent injury rating, pigweed; type: in vivo, rough pigweed; set-up: key: injury rating scale, 4 = death
# Method: as §1, §2, §3, §4, §7
# Foxtail [13] = assay: Postemergent injury rating, foxtail; type: in vivo, foxtail (millet); set-up: key: injury rating scale, 4 = death
# Method: as §1, §2, §3, §4, §7
structure (smiles),measurement,setting,value
"On1c(C(F)(F)F)nc2ncc(Cl)cc21 [6-chloro-1-hydroxy-2-(trifluoromethyl)-1H-imidazo(4,5-b)pyridine]","herbicidal effect, Sorghum",Sorghum; 0.25 lbs/A,0
same,"herbicidal effect, Sorghum",Sorghum; 1.0 lbs/A,8BS
same,"herbicidal effect, Sorghum",Sorghum; 2.0 lbs/A,10D
same,"herbicidal effect, Morning glory",Morning glory; 0.5 lbs/A,10D
same,"herbicidal effect, Morning glory",Morning glory; 2.0 lbs/A,10D
same,"Injury Rating, Cotton",Cotton; 1 lbs/acre,0
same,"Injury Rating, Cotton",Cotton; 2 lbs/acre,0
same,"Injury Rating, Cotton",Cotton; 4 lbs/acre,0
same,"Injury Rating, Cotton",Cotton; 8 lbs/acre,2
same,"herbicidal effect, Rice",Rice; 0.25 lbs/A,0
same,"herbicidal effect, Rice",Rice; 0.5 lbs/A,3B
same,"herbicidal effect, Barnyard Grass",Barnyard Grass; 0.25 lbs/A,0
same,"herbicidal effect, Barnyard Grass","Barnyard Grass; 1.0 lbs/A, listed as A",3S and 2S
same,"herbicidal effect, Barnyard Grass",Barnyard Grass; 2.0 lbs/A,9BS
same,"herbicidal effect, Foxtail Millet",Foxtail Millet; 0.25 lbs/A,0
same,"herbicidal effect, Foxtail Millet",Foxtail Millet; 0.5 lbs/A,2S
same,"herbicidal effect, Foxtail Millet",Foxtail Millet; 2.0 lbs/A,10D
same,"Injury Rating, Crabgrass",Crabgrass [1]; 1 lbs/acre,4
same,"Injury Rating, Crabgrass",Crabgrass [1]; 2 lbs/acre,3
same,"Injury Rating, Crabgrass",Crabgrass [1]; 4 lbs/acre,4
same,"Injury Rating, Crabgrass",Crabgrass [1]; 8 lbs/acre,4
same,"Injury Rating, Corn",Corn [2]; 1 lbs/acre,0
same,"Injury Rating, Corn",Corn [2]; 2 lbs/acre,0
same,"Injury Rating, Corn",Corn [2]; 4 lbs/acre,1
same,"Injury Rating, Corn",Corn [2]; 8 lbs/acre,1
same,"herbicidal effect, Corn",Corn [3]; 0.25 lbs/A,0
same,"herbicidal effect, Corn",Corn [3]; 0.5 lbs/A,0
same,"herbicidal effect, Corn",Corn [3]; 1.0 lbs/A,0
same,"herbicidal effect, Jimsonweed","Jimsonweed; 0.25 lbs/A, listed as A",4B and 2B
same,"herbicidal effect, Jimsonweed","Jimsonweed; 0.5 lbs/A, listed as A",8BS and 5BS
same,"herbicidal effect, Jimsonweed",Jimsonweed; 1.0 lbs/A,9BS
same,"herbicidal effect, Jimsonweed",Jimsonweed; 2.0 lbs/A,9BS
same,"herbicidal effect, Large Crabgrass",Large Crabgrass,3S and 2S
same,"Injury Rating, Foxtail",Foxtail [4]; 1 lbs/acre,3
same,"Injury Rating, Foxtail",Foxtail [4]; 2 lbs/acre,3
same,"Injury Rating, Foxtail",Foxtail [4]; 4 lbs/acre,3
same,"Injury Rating, Foxtail",Foxtail [4]; 8 lbs/acre,3
same,"herbicidal effect, Corn",Corn [5]; 0.25 lbs/A,0
same,"herbicidal effect, Corn",Corn [5]; 0.5 lbs/A,0
same,"herbicidal effect, Corn",Corn [5]; 1.0 lbs/A,0
same,"Injury Rating, Pigweed",Pigweed [6]; 1 lbs/acre,4
same,"Injury Rating, Pigweed",Pigweed [6]; 2 lbs/acre,4
same,"Injury Rating, Pigweed",Pigweed [6]; 4 lbs/acre,4
same,"Injury Rating, Pigweed",Pigweed [6]; 8 lbs/acre,4
same,"Injury Rating, Soybean",Soybean; 1 lbs/acre,0
same,"Injury Rating, Soybean",Soybean; 2 lbs/acre,0
same,"Injury Rating, Soybean",Soybean; 4 lbs/acre,0
same,"Injury Rating, Soybean",Soybean; 8 lbs/acre,1
same,"Injury Rating, Velvet Leaf",Velvet Leaf [7]; 1 lbs/acre,2
same,"Injury Rating, Velvet Leaf",Velvet Leaf [7]; 2 lbs/acre,4
same,"Injury Rating, Velvet Leaf",Velvet Leaf [7]; 4 lbs/acre,4
same,"Injury Rating, Velvet Leaf",Velvet Leaf [7]; 8 lbs/acre,3
same,"herbicidal effect, Lambs Quarter",Lambs Quarter; 1.0 lbs/A,9SB and 6SB
same,"herbicidal effect, Lambs Quarter",Lambs Quarter; 2.0 lbs/A,9BS and 8BS
same,"herbicidal effect, Pigweed",Pigweed [8]; 0.25 lbs/A,0
same,"herbicidal effect, Pigweed","Pigweed [8]; 0.5 lbs/A, listed as A",2S and 3S
same,"herbicidal effect, Ragweed","Ragweed; 0.25 lbs/A, listed as A",2S and 3S
same,"herbicidal effect, Ragweed",Ragweed; 1.0 lbs/A,8BS
same,"herbicidal effect, Velvet leaf",Velvet Leaf [9]; 0.25 lbs/A,0
same,"herbicidal effect, Velvet leaf","Velvet Leaf [9]; 0.5 lbs/A, listed as A",2S and 3S
"On1c(C(F)(F)F)nc2nccc(Cl)c21 [7-chloro-1-hydroxy-2-(trifluoromethyl)-1H-imidazo(4,5-b)pyridine]","Injury Rating, Crabgrass",Crabgrass [10]; 4 lbs/acre,1
same,"Injury Rating, Crabgrass",Crabgrass [10]; 8 lbs/acre,2
same,"Injury Rating, Corn",Corn [11]; 4 lbs/acre,0
same,"Injury Rating, Corn",Corn [11]; 8 lbs/acre,1
same,"Injury Rating, Pigweed",Pigweed [12]; 4 lbs/acre,3
same,"Injury Rating, Pigweed",Pigweed [12]; 8 lbs/acre,3
same,"Injury Rating, Foxtail",Foxtail [13]; 4 lbs/acre,1
same,"Injury Rating, Foxtail",Foxtail [13]; 8 lbs/acre,3
